US20040234531A1, “Chimeric human leukocyte antigen and epitope-bearing molecules having immunosuppressant activity” (priority 2001, published 2004)

How the values were obtained:
[1] = system: lymph node cells from GAD65-immunized HLA-DR4 transgenic mice; test: Proliferation and cytokines of lymph node cells from HLA-DR4 transgenic mice immunized with p271-285 GAD65 peptide; assay type: cell-based, mouse
Protocol: (§1) FIG. 9A-C. Potency of human DEF molecules in activating murine specific T cells. (A) Lymph node cells (3×10^5) from HLA-DR4 transgenic mice immunized with p271-285 GAD65 peptide were cultured for five dats in the presence of spleen cells (2×10^5) from naive HLA-DR4 mice and 5, 10 or 15 μg/ml of GAD65 peptide or 0.05, 0.5 or 1 μg/ml of DEF-GAD65. (B) Using the same protocol as for (A), cells from mice immunized withp73-90 proinsulin peptide wee stimulated with the same doses of proinsulin peptide or DEF-Pi. […] The proliferative responses are expressed as Δcpm=specific cpm−background cpm.
(§2) HLA-DR*0401 +/+, Abb −/− mice ([…], Taconic, Germantown, N.Y.) expressthe α1β1 domains of HLA-DR*0401 linked to the α2β2 domains of I-E^d, and at the same time are deficient for endogenous MHC class II (1-A^b, I-E^b) molecules (Abb −/−).
(§3) Groups of five mice were immunized in the footpads with either 100 micrograms of p271-285 GAD65 peptide or p73-90 proinsulin peptide in Complete Freund's Adjuvant (“CFA”). Lymph nodes were harvested ten days later and cells from GAD65-immunized mice were stimulated in vitro with various doses of p271-285 synthetic peptide, DEF-GAD65 or empty DEF molecules. […] The amount of peptide carried by the human DEF molecules was normalized on a molar basis, and the immunopotency determined as described in Casares et al., 1999, 3. […]

[2] = system: lymph node cells from proinsulin-immunized HLA-DR4 transgenic mice; test: Proliferation and cytokines of lymph node cells from HLA-DR4 transgenic mice immunized with p73-90 proinsulin peptide; assay type: cell-based, mouse
Protocol: as §1, §2, §3

With “GAD65 peptide PRLIAFTSEHSHFSL (SEQ ID NO:10) (listed as Homo sapiens) [p271-285]” the EC50 ([1]; cells from GAD65-immunized mice, read-out: Half-maximal proliferation of stimulated cells) was 1000 nM and the “cytokine production in culture supernatants” value ([1]; day 5, ELISA) was “also secreted IL-10”.

With “proinsulin peptide GAGSLQPLALEGSLQKRG (SEQ ID NO: 43) (listed as Homo sapiens) [p73-90]” the EC50 ([2]; cells from proinsulin-immunized mice, read-out: Half-maximal proliferation of stimulated cells) was 2500 nM and the “cytokine production in culture supernatants” value ([2]; day 5, ELISA) was “secreted IL-2 but not IL-10”.
